The test system of this assay is K12877-001-R-J1-PDC complex spheroid viability. As to the kind of experiment: Anticancer human tumor K12877-001-R-J1-PDC patient-derived lung adenocarcinoma cell line growth inhibition [RAS]. The conditions noted are these: for viability, T/C: stronger effect = lower value. Put shortly: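 Multi-cell-type spheroids: tumor cells plus HUVEC endothelial cells and mesenchymal stem cells. RAS-pathway inhibitors were combined with targeted agents, each dosed in half-log steps down from clinical Cmax, or from 10 microM when Cmax was unknown.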

pIC50: −log10 of the molar value. Where “and” joins values, the source holds several entries; their conditions need not be identical. Identical values can stand only once.
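Also: spheroids exposed to agents for one week before readout.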
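For viability, T/C in this document: tumour cells co-cultured with HUVEC and mesenchymal stem cells in spheroids.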

A word on the pIC50: it is the IC50 on a negative log10 scale, so that one unit is a factor of ten. The viability, T/C is the result in the treated group divided by that in the control group, in per cent. For the compound `CCN1CCN(Cc2ccc(Nc3ncc(F)c(-c4cc(F)c5nc(C)n(C(C)C)c5c4)n3)nc2)CC1` + CCn1c(-c2cc(N3CCN(C)CC3)cnc2C(C)OC)c2c3cc(ccc31)-c1csc(n1)CC(NC(=O)C1CC1C)C(=O)N1CCCC(N1)C(=O)OCC(C)(C)C2, the pIC50 was less than 6.00 (curve of first compound, second compound 0.000949 µM); 6.10 (curve of first compound, second compound 0.003 µM); 6.24 (curve of first compound, second compound 0.00949 µM); 6.33 (curve of first compound, second compound 0.03 µM); 6.29 (curve of first compound, second compound 0.0949 µM); 6.42 (curve of first compound, second compound 0.3 µM). Moreover, the viability, T/C reads like this: (second compound 0.000949 µM, first compound 0.00316 µM) 79.9%; (second compound 0.000949 µM, first compound 0.01 µM) 84.1%; (second compound 0.000949 µM, first compound 0.0316 µM) 85%; (second compound 0.000949 µM, first compound 0.1 µM) 92.5%; (second compound 0.000949 µM, first compound 0.316 µM) 86.8%; (second compound 0.000949 µM, first compound 1 µM) 73.2%. Also, the viability, T/C is 73.7% (second compound 0.003 µM, first compound 0.00316 µM); 72.1% (second compound 0.003 µM, first compound 0.01 µM); 72.7% (second compound 0.003 µM, first compound 0.0316 µM); 69.3% (second compound 0.003 µM, first compound 0.1 µM); 70.2% (second compound 0.003 µM, first compound 0.316 µM); 45.3% (second compound 0.003 µM, first compound 1 µM). Moreover, the viability, T/C runs as follows: (second compound 0.00949 µM, first compound 0.00316 µM) 61.7%; (second compound 0.00949 µM, first compound 0.01 µM) 61.3%; (second compound 0.00949 µM, first compound 0.0316 µM) 68.9%; (second compound 0.00949 µM, first compound 0.1 µM) 70.8%; (second compound 0.00949 µM, first compound 0.316 µM) 72%; (second compound 0.00949 µM, first compound 1 µM) 34.6%. The viability, T/C (second compound 0.03 µM, first compound 0.00316 µM) was 81.7%; the viability, T/C (second compound 0.03 µM, first compound 0.01 µM) was 86.8%; the viability, T/C (second compound 0.03 µM, first compound 0.0316 µM) is 74.3%; the viability, T/C (second compound 0.03 µM, first compound 0.1 µM) was 89.8%; the viability, T/C (second compound 0.03 µM, first compound 0.316 µM) is 61.5%; the viability, T/C (second compound 0.03 µM, first compound 1 µM) is 28.1%. The viability, T/C by setting is: (second compound 0.0949 µM, first compound 0.00316 µM) 106%; (second compound 0.0949 µM, first compound 0.01 µM) 97.9%; (second compound 0.0949 µM, first compound 0.0316 µM) 99.6%; (second compound 0.0949 µM, first compound 0.1 µM) 86.5%; (second compound 0.0949 µM, first compound 0.316 µM) 63%; (second compound 0.0949 µM, first compound 1 µM) 32.3%. Besides, the viability, T/C reads like this: (second compound 0.3 µM, first compound 0.00316 µM) 97%; (second compound 0.3 µM, first compound 0.01 µM) 86.2%; (second compound 0.3 µM, first compound 0.0316 µM) 86.5%; (second compound 0.3 µM, first compound 0.1 µM) 76.2%; (second compound 0.3 µM, first compound 0.316 µM) 53.1%; (second compound 0.3 µM, first compound 1 µM) 26.1%.
As to `C[C@@H](NC(=O)c1ncnc(N)c1Cl)c1ncc(C(=O)Nc2cc(C(F)(F)F)c(Cl)cn2)s1` + C=CC(=O)N1CCN(c2nc(OCC3CCCN3C)nc3c(F)c(-c4nc(N)cc(C)c4C(F)(F)F)c(Cl)cc23)C(C)C1, the pIC50 runs as follows: (curve of first compound, second compound 0.00316 µM) less than 5.00; (curve of first compound, second compound 0.01 µM) less than 5.00; (curve of first compound, second compound 0.0316 µM) less than 5.00; (curve of first compound, second compound 0.1 µM) less than 5.00; (curve of first compound, second compound 0.316 µM) less than 5.00; (curve of first compound, second compound 1 µM) less than 5.00. For the same compound, the viability, T/C was 94.8% (second compound 0.00316 µM, first compound 0.0316 µM); 89.7% (second compound 0.00316 µM, first compound 0.1 µM); 95.6% (second compound 0.00316 µM, first compound 0.316 µM); 99.1% (second compound 0.00316 µM, first compound 1 µM); 101% (second compound 0.00316 µM, first compound 3.16 µM); 99.8% (second compound 0.00316 µM, first compound 10 µM). Further, the viability, T/C is, setting by setting: (second compound 0.01 µM, first compound 0.0316 µM) 96.8%; (second compound 0.01 µM, first compound 0.1 µM) 82.5%; (second compound 0.01 µM, first compound 0.316 µM) 92.6%; (second compound 0.01 µM, first compound 1 µM) 92.9%; (second compound 0.01 µM, first compound 3.16 µM) 97.1%; (second compound 0.01 µM, first compound 10 µM) 85.4%. Further, the viability, T/C (second compound 0.0316 µM, first compound 0.0316 µM) was 91%; the viability, T/C (second compound 0.0316 µM, first compound 0.1 µM) was 86.9%; the viability, T/C (second compound 0.0316 µM, first compound 0.316 µM) was 74.3%; the viability, T/C (second compound 0.0316 µM, first compound 1 µM) is 90.1%; the viability, T/C (second compound 0.0316 µM, first compound 3.16 µM) was 86.8%; the viability, T/C (second compound 0.0316 µM, first compound 10 µM) was 96.5%. The viability, T/C reads like this: (second compound 0.1 µM, first compound 0.0316 µM) 89.6%; (second compound 0.1 µM, first compound 0.1 µM) 83.5%; (second compound 0.1 µM, first compound 0.316 µM) 84.7%; (second compound 0.1 µM, first compound 1 µM) 90.4%; (second compound 0.1 µM, first compound 3.16 µM) 83.7%; (second compound 0.1 µM, first compound 10 µM) 85.2%. Moreover, the viability, T/C is 81.4% (second compound 0.316 µM, first compound 0.0316 µM); 81.8% (second compound 0.316 µM, first compound 0.1 µM); 77.1% (second compound 0.316 µM, first compound 0.316 µM); 83.6% (second compound 0.316 µM, first compound 1 µM); 83.1% (second compound 0.316 µM, first compound 3.16 µM); 116% (second compound 0.316 µM, first compound 10 µM). The viability, T/C (second compound 1 µM, first compound 0.0316 µM) is 75%; the viability, T/C (second compound 1 µM, first compound 0.1 µM) is 75.8%; the viability, T/C (second compound 1 µM, first compound 0.316 µM) is 89.5%; the viability, T/C (second compound 1 µM, first compound 1 µM) is 92.5%; the viability, T/C (second compound 1 µM, first compound 3.16 µM) is 91.1%; the viability, T/C (second compound 1 µM, first compound 10 µM) is 113%.
In the case of `CC(C)NCC(C(=O)N1CCN(c2ncnc3c2C(C)CC3O)CC1)c1ccc(Cl)cc1` (stereo not drawn), the viability, T/C reads like this: (compound 0.0316 µM) 107% and 110% (2×) and 97.4%; (compound 0.1 µM) 102% [middle of 4 runs].
As for `CCn1c(-c2cccnc2C(C)OC)c2c3cc(ccc31)N1CCOC(CC(NC(=O)C(C(C)C)N(C)C(=O)C3(F)CCN(C(=O)C#CC(C)(C)N(C)C)CC3)C(=O)N3CCCC(N3)C(=O)OCC(C)(C)C2)C1` (stereo not drawn), the viability, T/C by setting is: (compound 0.000949 µM) 86.3% [middle of 8 runs]; (compound 0.003 µM) 81.2% [middle of 8 runs]; (compound 0.00949 µM) 79.2% [middle of 8 runs]; (compound 0.03 µM) 79% [middle of 8 runs]; (compound 0.0949 µM) 72.1% [middle of 8 runs]; (compound 0.3 µM) 72.7% [middle of 8 runs]. Also, for the setting “compound alone, run of 08/20/2024”, the pIC50 was less than 6.52.

These data come from PubChem BioAssay AID2060894 (Molecular Pharmacology Branch, DTP, NCI, 2025).
